# Experimental data as given in paper PMC4546622, “Structure of the Glycosyltransferase Ktr4p from Saccharomyces cerevisiae” (PLoS ONE, 2015).
# T1: Ktr4p (Saccharomyces cerevisiae, UniProt P38131)
# T1 construct: gene KTR4; lumenal domain (stalk plus catalytic), residues Asn-33 to Tyr-464; N-terminal His6 tag cut off with TEV protease; E. coli Rosetta-gami 2 (DE3); monomer fraction from SEC
# T1 sequence (P38131 33-464): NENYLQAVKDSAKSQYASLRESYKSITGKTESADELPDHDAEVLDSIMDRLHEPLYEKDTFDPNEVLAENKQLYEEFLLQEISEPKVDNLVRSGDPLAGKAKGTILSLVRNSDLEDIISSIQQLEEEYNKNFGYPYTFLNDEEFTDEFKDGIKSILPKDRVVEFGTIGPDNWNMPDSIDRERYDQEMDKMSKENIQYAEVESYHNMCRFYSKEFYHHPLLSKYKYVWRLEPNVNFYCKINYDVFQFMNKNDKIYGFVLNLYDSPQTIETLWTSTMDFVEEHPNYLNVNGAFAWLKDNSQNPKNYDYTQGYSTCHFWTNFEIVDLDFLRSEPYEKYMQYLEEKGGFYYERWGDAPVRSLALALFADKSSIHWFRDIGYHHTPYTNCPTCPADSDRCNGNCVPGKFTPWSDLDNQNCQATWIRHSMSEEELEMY
# B1: Ktr4p lumenal domain (residues Asn-33 to Tyr-464; stalk domain and catalytic domain) (domain or fragment, S. cerevisiae, UniProt P38131 33-464, looked up)
# chain: T1 sequence (P38131 33-464)
# notes: Cloned in pNIC28-Bsa4 with a His6 tag and a TEV site N-terminal of the construct; the tag was removed with TEV protease; A few residues of the vector probably remain at the N-terminus after cleavage (surmised from the forward primer); Residues 33-69/70 are not visible in the structures; source: E. coli Rosetta-gami 2 (DE3), purified (Ni-NTA IMAC, TEV cleavage, second IMAC pass, Superdex 200 SEC); …
# Experiments:
# [1] = molecular target: T1, Ktr4p; test: coupled phosphatase (ENTPD3/CD39L3) malachite green assay; type: biochemical; conditions: 10 μM enzyme, 10 mM MnCl2, 10 mM CaCl2, pH 7.5, 20°C
# [2] = molecular target: T1, Ktr4p; test: X-ray crystal structure, […] Å; type: binding; conditions: with Mn2+ in the active site; 5 mM GDP and 5 mM MnCl2; pH 6.5; 4°C
# [3] = molecular target: the molecule itself; test: SEC; Superdex 200 16/60, 10 mM HEPES pH 7.4, 150 mM NaCl; final purification step; monomer and dimer peaks at a ratio of ~2:1, monomer peak the largest
molecule,measurement,setting,value
Nc1nc2c(ncn2[C@@H]2O[C@H](COP(=O)(O)OP(=O)(O)O[C@H]3O[C@H](CO)[C@@H](O)[C@H](O)[C@@H]3O)[C@@H](O)[C@H]2O)c(=O)[nH]1 [GDP-mannose],coupled phosphatase (ENTPD3/CD39L3) malachite green assay,"[1]; sugar donor, 50 μM, 500 μM acceptor",GDP-mannose is a suitable sugar donor
CO[C@H]1O[C@H](CO)[C@@H](O)[C@H](O)[C@@H]1O [methyl-α-mannoside],coupled phosphatase (ENTPD3/CD39L3) malachite green assay,"[1]; sugar acceptor, 500 μM, 50 μM GDP-mannose",we observe the most efficient activity with methyl-α-mannoside
Nc1nc2c(ncn2[C@@H]2O[C@H](COP(=O)(O)OP(=O)(O)O)[C@@H](O)[C@H]2O)c(=O)[nH]1 [GDP],"X-ray crystal structure, 1.9 Å",[2],5a08 for the apo structure and 5a07 for the GDP-complex structure
B1,stoichiometry N,[3],2
